The values that follow come from US20030125235A1, “Treatment of diseases associated with cytokine production with inhibitors of the tec family of protein tyrosine kinases” (priority 2000, published 2003).

SMILES strings stand for the structures.

Data set [1] relates to RAW 264.7 murine macrophages. As to the kind of experiment: LPS-induced TNF-α production in RAW 264.7 murine macrophages (ELISA). The data set is classed as cell-based. Here is the method: The murine macrophage cell line, Raw 264.7 were maintained in DMEM medium supplemented with 100 units/ml penicillin/streptomycin and 5% heat-inactivated fetal calf serum at 37° C. in a humidified atmosphere containing 5% CO2.
(§1) Supernatants from experiments using either human macrophages, rheumatoid synovial cells or PBMCs were analyzed for TNF-α ot IL-1 by enzyme-linked immunosorbent assay (ELISA). The ELISA for hTNF-α was performed as described by Engelberts et al. (1991) Lymphokine Cytokine Res. 10, 60-76.
This compound was investigated for its effects on TNF-α production. […] Supernatants were then harvested and assayed for TNF-α by ELISA as described in the Methods section.
(In an ELISA, binding on a coated surface is turned into a signal by an enzyme label.)

The target of data set [2] is Btk (Homo sapiens, UniProt Q06187). The note with it: literature (Kawakami et al. 1999; Mahajan et al. 1999); cited from earlier work.
Chain of Btk (Q06187 whole entry, species assumed): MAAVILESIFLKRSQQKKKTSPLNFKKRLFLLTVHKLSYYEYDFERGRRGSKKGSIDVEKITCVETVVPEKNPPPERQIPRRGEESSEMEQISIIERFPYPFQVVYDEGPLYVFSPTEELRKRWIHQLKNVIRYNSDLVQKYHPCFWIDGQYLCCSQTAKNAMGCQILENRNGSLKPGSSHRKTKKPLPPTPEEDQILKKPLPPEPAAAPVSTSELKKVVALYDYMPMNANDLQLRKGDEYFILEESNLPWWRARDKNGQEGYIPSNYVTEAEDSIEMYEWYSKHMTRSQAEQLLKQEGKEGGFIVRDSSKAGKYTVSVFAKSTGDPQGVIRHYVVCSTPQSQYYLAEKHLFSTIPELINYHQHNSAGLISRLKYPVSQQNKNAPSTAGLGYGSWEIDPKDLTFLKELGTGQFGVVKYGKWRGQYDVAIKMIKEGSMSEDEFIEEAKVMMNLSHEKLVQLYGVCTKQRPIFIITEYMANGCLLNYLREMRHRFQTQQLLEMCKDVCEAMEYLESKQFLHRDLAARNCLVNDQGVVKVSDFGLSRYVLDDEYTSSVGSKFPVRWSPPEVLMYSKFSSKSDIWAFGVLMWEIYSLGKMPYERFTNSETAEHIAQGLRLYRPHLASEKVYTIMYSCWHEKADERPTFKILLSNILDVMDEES
Data set [3] deals with Lyn, Syk or MAP kinases. The following applies: Kawakami et al. 1999; cited from earlier work.
Data set [4] concerns TNF production. The following applies: cited from earlier work; for LPS-induced TNF production: Geng et al. 1993.
Data set [5] concerns human monocytes. The following applies: Stefanova et al. 1993; cited from earlier work.
The subject of data set [6] is RA synovial membrane cultures. As to the kind of experiment: Spontaneous TNF production in rheumatoid arthritis synovial membrane cultures (ELISA). The data set is classed as cell-based, human. The note with it: overnight culture; FIG. 10. How it is done:
Synovium from rheumatoid patients undergoing joint replacement surgery was dissociated by cutting into small pieces, digested with collagenase and DNase (Buchan et al., 1988). The total cell mixture consisting predominantly of T cells and macrophages were cultured at a density of 1×10^6 cells/ml in RPMI containing 100 units/ml penicillin/streptomycin and 5% heat-inactivated fetal calf serum.
as §1
RA synovial cultures were treated with herbimycin at the given concentrations. Following overnight culture the supernatants were harvested and TNF expression measured by ELISA.

On to `C/C(O)=C(\C#N)C(=O)Nc1cc(Br)ccc1Br` [LFM-A13], for which the “inhibition of LPS-induced TNF-α expression” value in data set [1] (200 μM, 1 h pretreatment, LPS 10 ng/ml for 4 h, FIG. 3) is 44%. Besides, the “toxicity limiting the usable concentration” value in data set [1] (above 200 μM) was “toxicity”. Also, the “block of LPS-induced TNF-α expression (concentration dependence)” value in data set [1] (various concentrations, 1 h pretreatment, LPS 10 ng/ml for 4 h, FIG. 3) is on record as “dose-dependent manner”.
Take `CC1=C(O)C(=O)[C@@H]2O[C@@H]2C1=O` [Terreic acid]: the “inhibition of Btk” value in data set [2] is given as “inhibit Btk”. Besides, the “effect on activity of Lyn, Syk or MAP kinases” value in data set [3] was “without affecting the activity”.
With `O=c1c(-c2ccc(O)cc2)coc2cc(O)cc(O)c12` [genistein], the “LPS-induced TNF production” value in data set [4] was “block”.
Turning to `CO[C@H]1[C@@H](OC)C[C@H](C)[C@@H](OC)C2=CC(=O)C=C(NC(=O)/C(C)=C/C=C\[C@H](OC)[C@@H](OC(N)=O)/C(C)=C/[C@@H]1C)C2=O` [herbimycin], the “LPS-induced production of TNF-α and IL-1” value in data set [5] was “completely blocks”. In data set [4], the “LPS-induced TNF production” value is “block”. Besides, the “inhibition of spontaneous TNF production” value in data set [6] was “potent inhibitor”.
Take `N#CC(C#N)=Cc1ccc([N+](=O)[O-])c(O)c1` [tyrophostin AG126]: in data set [4] (Novogradsky et al. 1994), the TNF production entry is “block”.
